# Assay results: patent publication EP1382597A2, “Steroid receptor modulator compounds and methods” (LIGAND PHARMACEUTICALS, INC., priority 1994, dated 1996)
# How the values were obtained:
# ER = molecular target: T1, ER (Homo sapiens, UniProt P03372); assay: Co-transfection assay, ER antagonist activity; type: cell-based; details: for ER Antagonist CV-1 Cells Efficacy (%): percent maximal inhibition, estradiol at its EC50
# T1 construct: expressed in transfected cells; host or cells: CV-1 cells, transient transfection, with MTV-ERE5-LUC reporter
# human PR-B [1] = molecular target: T2, human PR-B (Homo sapiens, UniProt P06401); assay: Co-transfection assay, PR agonist activity; type: cell-based;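 also: CV-1 cells (African green monkey kidney) co-transfected with receptor plasmid and hormone-responsive firefly luciferase reporter, agonism read as compound-dependent rise in luciferase signal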
# T2 construct: expressed in transfected cells; host or cells: CV-1 cells (African green monkey kidney fibroblasts), transient transfection
# T2 sequence (P06401 1-933): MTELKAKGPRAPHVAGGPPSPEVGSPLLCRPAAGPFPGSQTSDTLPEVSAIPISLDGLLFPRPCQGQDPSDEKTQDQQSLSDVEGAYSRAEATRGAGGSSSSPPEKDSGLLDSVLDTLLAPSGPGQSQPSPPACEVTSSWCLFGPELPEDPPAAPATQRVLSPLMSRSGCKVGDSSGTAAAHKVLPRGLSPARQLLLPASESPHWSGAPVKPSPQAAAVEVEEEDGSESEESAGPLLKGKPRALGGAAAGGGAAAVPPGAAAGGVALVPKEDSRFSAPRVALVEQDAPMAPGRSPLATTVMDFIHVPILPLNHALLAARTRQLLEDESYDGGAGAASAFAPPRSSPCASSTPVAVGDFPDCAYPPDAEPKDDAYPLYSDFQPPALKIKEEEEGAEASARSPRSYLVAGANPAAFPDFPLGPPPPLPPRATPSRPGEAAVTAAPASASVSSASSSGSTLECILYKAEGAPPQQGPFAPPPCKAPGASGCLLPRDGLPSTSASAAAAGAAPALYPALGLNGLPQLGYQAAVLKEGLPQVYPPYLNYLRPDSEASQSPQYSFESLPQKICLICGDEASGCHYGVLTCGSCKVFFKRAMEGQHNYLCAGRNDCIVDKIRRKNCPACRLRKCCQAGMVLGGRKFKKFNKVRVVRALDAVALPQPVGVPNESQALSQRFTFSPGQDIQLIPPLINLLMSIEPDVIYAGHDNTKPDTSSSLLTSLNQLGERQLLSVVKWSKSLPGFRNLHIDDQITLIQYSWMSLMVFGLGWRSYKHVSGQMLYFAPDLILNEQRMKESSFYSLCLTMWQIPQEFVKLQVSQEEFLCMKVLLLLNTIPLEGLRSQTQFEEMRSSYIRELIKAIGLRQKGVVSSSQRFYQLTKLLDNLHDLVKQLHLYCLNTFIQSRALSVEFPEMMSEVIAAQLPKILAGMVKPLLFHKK
# AR [2] = molecular target: T3, AR (Homo sapiens, UniProt P10275); assay: Co-transfection assay, AR antagonist activity; type: cell-based
# T3 construct: expressed in transfected cells; host or cells: CV-1 cells, transient transfection
# human PR-B [3] = molecular target: T2, human PR-B; assay: Co-transfection assay, PR antagonist activity; type: cell-based;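 also: monkey kidney fibroblasts co-transfected with receptor expression plasmid and hormone-responsive luciferase reporter, antagonism read as reduced luciferase signal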
# AR [4] = molecular target: T3, AR; assay: Co-transfection assay, AR agonist activity; type: cell-based
# AR [5] = molecular target: T4, AR (Rattus norvegicus, UniProt P15207); assay: Immature castrated male rat model (antiandrogen activity); type: in vivo, rats (Sprague-Dawley); details: for %SV growth / %VP growth: 0 mg TP = 100; for SV (wet wt): seminal vesicles
# T4 construct: from tissue; host or cells: live Sprague-Dawley rats; ventral prostate and seminal vesicles weighed
# T4 sequence (P15207 1-902): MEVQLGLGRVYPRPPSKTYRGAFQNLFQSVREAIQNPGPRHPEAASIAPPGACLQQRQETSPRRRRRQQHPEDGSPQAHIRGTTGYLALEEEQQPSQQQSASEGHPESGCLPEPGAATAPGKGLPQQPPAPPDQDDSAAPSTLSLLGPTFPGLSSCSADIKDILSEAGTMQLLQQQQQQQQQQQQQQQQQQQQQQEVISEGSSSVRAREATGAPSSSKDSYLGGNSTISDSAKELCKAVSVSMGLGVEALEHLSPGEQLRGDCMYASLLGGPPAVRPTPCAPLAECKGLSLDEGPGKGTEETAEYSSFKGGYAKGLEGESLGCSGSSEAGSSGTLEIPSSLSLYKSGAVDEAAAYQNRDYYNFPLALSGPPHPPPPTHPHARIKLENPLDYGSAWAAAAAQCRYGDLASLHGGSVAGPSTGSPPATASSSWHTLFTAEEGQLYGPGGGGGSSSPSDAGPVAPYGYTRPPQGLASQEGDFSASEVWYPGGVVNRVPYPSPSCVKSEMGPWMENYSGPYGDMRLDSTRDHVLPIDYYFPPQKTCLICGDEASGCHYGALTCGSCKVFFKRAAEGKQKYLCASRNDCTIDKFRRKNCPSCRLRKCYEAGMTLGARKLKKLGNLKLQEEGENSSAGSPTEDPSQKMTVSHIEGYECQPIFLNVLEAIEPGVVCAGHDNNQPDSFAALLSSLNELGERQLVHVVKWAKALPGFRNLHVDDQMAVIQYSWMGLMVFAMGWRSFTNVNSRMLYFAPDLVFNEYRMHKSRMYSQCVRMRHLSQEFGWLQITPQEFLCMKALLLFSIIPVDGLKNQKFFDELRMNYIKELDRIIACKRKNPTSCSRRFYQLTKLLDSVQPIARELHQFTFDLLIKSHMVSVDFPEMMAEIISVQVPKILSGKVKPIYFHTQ
# Source text: Since the male sex organs are the tissues most responsive to modulation of androgen activity, this model is used to determine the androgen-dependent growth of the sex accessory organs in immature castrated rats.
# At the end of the 3-day treatment, the animals were sacrificed, and the ventral prostates (VP) and seminal vesicles (SV) were collected and weighed. To compare data from different experiments, the sexual organ weights were first standardized as mg per 100 g of body weight, and the increase in organ weight induced by TP was considered as the maximum increase (100%). Super-anova (one factor) was used for statistical analysis.
# [6] = CV-1, read-out: AR Antagonist CV-1 Cells Efficacy (%)
# [7] = CV-1, read-out: AR Agonist CV-1 Cells Efficacy (%)
# [8] = CV-1 cells; percent maximal inhibition, DHT at its EC50
# [9] = 0.01 mg TP once daily for 3 days
# [10] = 0.03 mg TP once daily for 3 days
# [11] = 0.1 mg TP once daily for 3 days
# [12] = 0.3 mg TP once daily for 3 days
# [13] = CV-1 cells; relative to reference agonist DHT
# T3 sequence (P10275 whole entry): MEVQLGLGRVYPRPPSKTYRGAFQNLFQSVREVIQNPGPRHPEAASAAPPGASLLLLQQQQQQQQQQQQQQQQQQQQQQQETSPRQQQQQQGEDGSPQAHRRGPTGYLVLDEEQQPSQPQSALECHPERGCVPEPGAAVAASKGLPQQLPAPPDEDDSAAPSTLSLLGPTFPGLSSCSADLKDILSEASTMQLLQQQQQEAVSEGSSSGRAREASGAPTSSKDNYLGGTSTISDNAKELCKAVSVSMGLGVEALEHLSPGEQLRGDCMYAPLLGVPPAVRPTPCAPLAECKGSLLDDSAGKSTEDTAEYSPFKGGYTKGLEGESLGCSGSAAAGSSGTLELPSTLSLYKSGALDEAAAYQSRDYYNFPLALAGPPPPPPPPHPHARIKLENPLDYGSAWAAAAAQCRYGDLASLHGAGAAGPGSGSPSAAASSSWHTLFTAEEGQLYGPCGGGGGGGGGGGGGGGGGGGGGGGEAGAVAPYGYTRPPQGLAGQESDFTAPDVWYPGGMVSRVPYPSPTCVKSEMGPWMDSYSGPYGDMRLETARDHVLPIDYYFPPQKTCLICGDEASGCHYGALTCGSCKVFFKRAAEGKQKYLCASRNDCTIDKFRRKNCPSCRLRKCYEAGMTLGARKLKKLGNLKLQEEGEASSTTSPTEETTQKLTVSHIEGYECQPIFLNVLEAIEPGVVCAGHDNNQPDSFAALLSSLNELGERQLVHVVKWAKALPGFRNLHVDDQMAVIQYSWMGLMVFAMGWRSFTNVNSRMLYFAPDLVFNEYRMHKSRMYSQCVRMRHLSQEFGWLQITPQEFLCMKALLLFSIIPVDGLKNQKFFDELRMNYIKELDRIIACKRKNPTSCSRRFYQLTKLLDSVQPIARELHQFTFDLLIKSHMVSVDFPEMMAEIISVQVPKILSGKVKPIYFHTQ
# T1 sequence (P03372 whole entry): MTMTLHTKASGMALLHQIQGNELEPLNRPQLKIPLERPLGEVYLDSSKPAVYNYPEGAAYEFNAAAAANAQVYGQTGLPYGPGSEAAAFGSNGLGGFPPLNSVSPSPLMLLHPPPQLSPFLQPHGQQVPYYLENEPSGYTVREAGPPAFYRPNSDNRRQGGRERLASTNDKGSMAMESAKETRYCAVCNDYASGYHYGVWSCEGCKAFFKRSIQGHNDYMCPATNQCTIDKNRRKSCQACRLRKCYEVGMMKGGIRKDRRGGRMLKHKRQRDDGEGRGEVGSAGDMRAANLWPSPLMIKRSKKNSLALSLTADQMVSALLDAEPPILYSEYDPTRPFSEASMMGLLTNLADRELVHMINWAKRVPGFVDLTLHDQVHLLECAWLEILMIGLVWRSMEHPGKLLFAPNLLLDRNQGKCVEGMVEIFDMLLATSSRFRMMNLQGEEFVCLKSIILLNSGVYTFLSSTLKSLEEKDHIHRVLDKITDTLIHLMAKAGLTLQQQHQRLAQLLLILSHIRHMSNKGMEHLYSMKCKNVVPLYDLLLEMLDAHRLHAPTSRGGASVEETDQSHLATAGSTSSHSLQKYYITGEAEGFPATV
smiles,measurement,setting,value
"CC1=CC(C)(C)Nc2ccc3c(c21)C(c1cccc(F)c1)Oc1ccccc1-3 (racemic) [Compound 191, (R/S)-5-(3-Fluorophenyl)-1,2-dihydro-2,2,4-trimethyl-5H-chromeno[3,4-f]quinoline]",IC50,ER,0.33 µM
same,ER Antagonist CV-1 Cells Efficacy (%),ER,93%
same,Emax,"human PR-B [1]; CV-1, read-out: PR Agonist CV-1 Cells Efficacy (%)",26%
same,IC50,AR [2],0.52 µM
same,Emax,"human PR-B [3]; CV-1, read-out: PR Antagonist CV-1 Cells Efficacy (%)",74%
"CC1=CC(C)(C)Nc2cc3oc(=O)cc(C(F)(F)F)c3cc21 [Compound 238, 1,2-Dihydro-2,2,4-trimethyl-6-trifluoromethyl-8-pyranono[5,6-g]quinoline]",Emax,AR [2]; [6],< 20%
same,Emax,AR [4]; [7],96%
"CC1CC(C)(C)Nc2cc3[nH]c(=O)cc(C(F)(F)F)c3cc21 (racemic) [Compound 260, 1,2,3,4-Tetrahydro-2,2,4-trimethyl-6-trifluoromethyl-8-pyridono[5,6-g]quinoline]",EC50,human PR-B [1],> 10 µM
same,AR Antagonist CV-1 Cells Efficacy (%),AR [2]; [8],53%
same,IC50,human PR-B [3],0.23 µM
"CCC(=O)O[C@H]1CC[C@H]2[C@@H]3CCC4=CC(=O)CC[C@]4(C)[C@H]3CC[C@]12C [TP, Testosterone Propionate]",%SV growth,AR [5]; [9],165.1%
same,%VP growth,AR [5]; [9],146.5%
same,VP (wet wt),"AR [5]; 0.01 mg TP once daily for 3 days, castrated immature rats, ventral prostate (organ weights standardized as mg per 100 g body weight)",15.4±0.6
same,SV (wet wt),AR [5]; [9],12.3±0.8
same,%SV growth,AR [5]; [10],369.5%
same,%VP growth,AR [5]; [10],224.1%
same,SV (wet wt),AR [5]; [10],27.5±0.8
same,VP (wet wt),"AR [5]; 0.03 mg TP once daily for 3 days, ventral prostate",23.5±1.3
same,SV (wet wt),AR [5]; 0.1 mg TP once daily for 3 days (Table 8),42.0±2.0
same,VP (wet wt),"AR [5]; 0.1 mg TP once daily for 3 days (Table 8), ventral prostate",35.3±2.1
same,%SV growth,AR [5]; [11],563.8%
same,%VP growth,AR [5]; [11],337.0%
same,%SV growth,AR [5]; [12],616.1%
same,%VP growth,AR [5]; [12],415.9%
same,SV (wet wt),AR [5]; [12],45.9±1.9
same,VP (wet wt),"AR [5]; 0.3 mg TP once daily for 3 days, ventral prostate",43.6±1.1
same,%SV growth,AR [5]; 1 mg TP once daily for 3 days,684.6%
same,%VP growth,AR [5]; 1 mg TP once daily for 3 days,427.4%
same,SV (wet wt),AR [5]; 1 mg TP once daily for 3 days,51.0±5.4
same,VP (wet wt),"AR [5]; 1 mg TP once daily for 3 days, ventral prostate",44.8±3.7
same,SV wt (% of TP (0.1) control),AR [5]; TP (0.1) alone (Table 9),100%
same,VP wt (% of TP (0.1) control),AR [5]; TP (0.1) alone (Table 9),100%
same,SV (wet wt),"AR [5]; TP (0.1) alone (Table 9), 3 days",33.6±4.0
same,VP (wet wt),"AR [5]; TP (0.1) alone (Table 9), 3 days, ventral prostate",25.5±1.2
same,EC50 (increase in organ wet weights),"AR [5]; immature castrated rats, dosing for 3 days, VP and SV",~0.03 mg
"CC1=CC(C)(C)N(C)c2cc3oc(=O)cc(C(F)(F)F)c3cc21 [Compound 265, 1,2-Dihydro-1,2,2,4-tetramethyl-6-trifluoromethyl-8-pyranono[5,6-g]quinoline]",Emax,AR [2]; [6],78%
same,Emax,AR [4]; [7],< 20%
"CC1=CC(C)(C)Nc2cc3c(cc21)c(C(F)(F)F)cc(=O)n3C [Compound 261, 1,2-Dihydro-2,2,4,9-tetramethyl-6-trifluoromethyl-8-pyridono[5,6-g]quinoline]",effect on testosterone-mediated increases in the weights of VP and SV,AR [5]; administered simultaneously with 0.1 mg of TP,exhibited AR antagonist activity by suppressing the testosterone-mediated increases in the weights of the VP and SV
"CC1=CC(C)(C)Nc2cc3[nH]c(=O)cc(C(F)(F)F)c3cc21 [Compound 247, 1,2-Dihydro-2,2,4-trimethyl-6-trifluoromethyl-8-pyridono[5,6-g]quinoline]",AR Antagonist CV-1 Cells Efficacy (%),AR [2]; [8],69%
same,AR Agonist CV-1 Cells Efficacy (%),AR [4]; [13],23%
"CC1=CC(C)(C)Nc2cc3oc(=O)cc(C(F)(F)C(F)(F)F)c3cc21 [Compound 256, 1,2-Dihydro-2,2,4-trimethyl-6-(1,1,2,2,2-pentafluoroethyl)-8-pyranono[5,6-g]quinoline]",Emax,AR [2]; [6],91%
same,Emax,AR [4]; [7],< 20%
"CC1(C)CNc2cc3[nH]c(=O)cc(C(F)(F)F)c3cc2C1 [Compound 437, 1,2,3,4-Tetrahydro-3,3-dimethyl-6-trifluoromethyl-8-pyridono[5,6-g]quinoline]",Emax,AR [2]; CV-1; read-out: AR Antagonist CV-1 Cells Efficacy (%),72%
same,Emax,AR [4]; CV-1; read-out: AR Agonist CV-1 Cells Efficacy (%),< 20%
"CCC1CCNc2cc3oc(=O)cc(C(F)(F)F)c3cc21 (racemic) [Compound 414, (R/S)-4-Ethyl-1,2,3,4-tetrahydro-6-trifluoromethyl-8-pyranono[5,6-g]quinoline]",Emax,AR [2]; [6],< 20%
same,Emax,AR [4]; [7],118%
"CC1C(=O)C(C)(C)Nc2cc3[nH]c(=O)cc(C(F)(F)F)c3cc21 (racemic) [Compound 418, (R/S)-1,2,3,4-tetrahydro-6-trifluoromethyl-2,2,4-trimethyl-8-pyridono[5,6-f]-3-quinolinone]",Emax,AR [2]; [6],63%
same,Emax,AR [4]; [7],< 20%
"O=c1cc(C(F)(F)F)c2cc3c(cc2[nH]1)NCC3 [Compound 419, 5-Trifluoromethyl-7-pyridono[5,6-e]indoline]",AR Antagonist CV-1 Cells Efficacy (%),AR [2]; [8],74%
same,AR Agonist CV-1 Cells Efficacy (%),AR [4]; [13],29%
"COc1cccc(C2Oc3ccccc3-c3ccc4c(c32)C(C)=CC(C)(C)N4)c1 (racemic) [Compound 194, (R/S)-1,2-Dihydro-5-(3-methoxyphenyl)-2,2,4-trimethyl-5H-chromeno[3,4-f]quinoline]",IC50,ER,0.39 µM
same,ER Antagonist CV-1 Cells Efficacy (%),ER,94%
"CC1CC(C)(C)Nc2cc3oc(=O)cc(-c4ccoc4)c3cc21 (racemic) [Compound 405, (R/S)-5-(3-Furyl)-1,2,3,4-tetrahydro-2,2,4-trimethyl-8-pyranono[5,6-g]quinoline]",Emax,AR [2]; [6],89%
same,Emax,AR [4]; [7],< 20%
